From publication PMC11580984 (bioRxiv, 2024)
Numbered stars: 1 amine (or outer) side, 2 acyl side, 3 side chain; on linkers, the order of the positions; unused ones are H or OH. Bridge positions count the residues as written; N and C are the ends. Square brackets hold non-standard residues; d marks the D form. Peptide text beside a SMILES is read from it. X1 = O=S(=O)(F)Oc1cc(C[*:1])cc(C[*:2])c1; Pra = C#CC[C@H](N)C(=O)O

What follows are compounds tested against full-length spike Omicron BA2 variant (Severe acute respiratory syndrome coronavirus 2, UniProt P0DTC2, A27S/A892P/A899P/A942P/D405N/D614G/D796Y/DEL24-26/E484A/F817P/G142D/G339D/H655Y/K417N/K986P/N440K/N501Y/N679K/N764K/N969K/P681H/Q493R/Q498R/Q954H/R408S/R683A/R685A/S371F/S373P/S375F/S477N/T19I/T376A/T478K/V213G/V987P/Y505H).
Assay type: binding, SARS-CoV-2

Row | SMILES | spike labeling
1 | C#CC[C@H](N)C(=O)N[C@@H](CCC(N)=O)C(=O)N[C@H]1CSCc2cc(cc(OS(=O)(=O)F)c2)CSC[C@@H](C(=O)NCC(N)=O)NC(=O)[C@H](C(C)C)NC(=O)[C@H](CCC(N)=O)NC(=O)[C@H](CC(=O)O)NC(=O)[C@H](CC(C)C)NC(=O)[C@H](Cc2ccc(O)cc2)NC(=O)[C@H](C(C)C)NC(=O)[C@H](CC(C)C)NC1=O [CP_SW3A_S2] (H-[Pra]QCLVYLDQVCG-NH2; linker 3-11 via X1) | dramatically reduced labeling
2 | C#CC[C@H](N)C(=O)N[C@@H](CCC(N)=O)C(=O)N[C@H]1CSCc2cc(cc(OS(=O)(=O)F)c2)CSC[C@@H](C(=O)NCC(N)=O)NC(=O)[C@H](CC(C)C)NC(=O)[C@H](C(C)C)NC(=O)[C@H](Cc2ccc(O)cc2)NC(=O)[C@H](CC(C)C)NC(=O)[C@H](CC(=O)O)NC(=O)[C@H](CCC(N)=O)NC(=O)[C@H](C(C)C)NC1=O [CP_SW3A] (H-[Pra]QCVQDLYVLCG-NH2; linker 3-11 via X1) | highest gel labeling intensity
3 | C#CC[C@H](NC(=O)[C@H](CCC(N)=O)NC(=O)[C@@H]1CSCc2cc(cc(OS(=O)(=O)F)c2)CSC[C@H](NC(=O)CN)C(=O)N[C@@H](CC(C)C)C(=O)N[C@@H](C(C)C)C(=O)N[C@@H](Cc2ccc(O)cc2)C(=O)N[C@@H](CC(C)C)C(=O)N[C@@H](CC(=O)O)C(=O)N[C@@H](CCC(N)=O)C(=O)N[C@@H](C(C)C)C(=O)N1)C(N)=O [CP_SW3A_S1] (H-GCLVYLDQVCQ[Pra]-NH2; linker 2-10 via X1) | dramatically reduced labeling
